Molecules are shown by their SMILES. Residues, ends and D or L forms follow the SMILES beside them.

Data set [1] is described as follows: in vivo. Particulars: male, Sprague Dawley, rat, iv.
Method: (§1) Experiments were performed on mature male Sprague Dawley rats (see Table II for weights). Prior to the experiments the animals were maintained on standard rat chow (Doust and Rabbidge, Sydney, Australia) and tap water. The animals were starved for 15-18h and then anaesthetized by peritoneal injection with Nembutal (Boehringer Ingelheim, Sydney, Australia) (4mg/kg Body Weight (B.W.) pentobarbitone). The internal jugular veins were exposed by blunt dissection and a small gauge silicone catheter (Dow Corning, Sydney, Australia) was introduced and secured with 5-0 silk sutures. Both internal jugular veins were catheterized; the left for dipeptide injection and the right for blood sampling. After insertion, the catheters were kept patent and with occasional flushes (0.2-0.5ml) of heparinized (10U/ml) isotonic saline.
(§2) All dipeptides were proven by to be >98% pure. […] Dipeptides were dissolved in 80mM sodium phosphate buffer, Ph 7.0, made isotonic with sodium chloride and filtered through a 0.2µm membrane filter (Millipore, Sydney, Australia).
(§3) Following an initial baseline blood sample (0.15-0.2ml) a bolus injection of dipeptide (0.2ml, see Table 1 for doses) was administered into the left catheter. Rapid blood samples were taken in the first 5 minutes and then at 10, 20 and 30 minutes following injection. Heparinized (10U/ml) isotonic saline (0.5ml) was injected into the sample catheter after the 5, 10 and 20 minute blood samples to maintain patency of the catheter. At each time point two blood samples were taken: the first, 0.1ml in volume, to remove traces of heparinized saline and blood from the catheter and the second, 0.15-ml in volume, for dipeptide and amino acid determination. One hour after injection of the dipeptide the bladder was exposed and urine was collected with a small gauge hypodermic needle.
(§4) Immediately following collection the blood (0.15-ml) and urine (0.5ml) samples were transferred to pre-weighed stoppered tubes containing 0.6ml of ice-cold 4% (w/v) sulfosalicylic acid. The samples were shaken vigorously and placed on ice for 10 minutes to allow complete deproteinization. The sample tubes were weighed and then centrifuged (bench-top, 1200 x g) for 10 minutes at 2-4°C. The resulting supernatant was filtered (0.45µm membrane, Millipore, Sydney, Australia) and stored at - 80°C. The volume of blood added to the tubes was determined by weight assuming a blood density of 1.06g/ml.
(§5) The concentration of dipeptides and amino acids in the deproteinized samples was determined using a HPLC modification of the standard ion-exchange chromatography, post-column ninhydrin method for physiological amino acids. The column temperature was modified for each dipeptide to produce complete separation of dipeptides and amino acids. The column temperatures were: 70°C for AlaGln, GlyTyr and GlnGly, 60°C for GlyGln, 55°C for GlnAla, and 45°C for AlaTyr.
(§6) Kinetic parameters were calculated for the disappearance of dipeptides, and the amino acids released from the dipeptides using standard equations. In calculating the amino acid clearance the dose was assumed to be that administered as the dipeptide. Baseline amino acid concentrations were subtracted from the amino acid concentrations measured following dipeptide injection to obtain the AUC for amino acids released from the dipeptides. AUC for dipeptides and the constituent amino acids was calculated using the trapezoidal method with extrapolation to infinite time.
(§7) Blood clearance was calculated by dividing the dose of dipeptide by the area under the blood concentration-versus-time curve (AUC). Elimination half-lifes (t½) were estimated from the relationship: t½ = ln2/β, where β is the rate constant for the terminal elimination phase. β was obtained by fitting the concentration-versus-time-curves to a two-compartment model by non-linear least squares regression.
The conditions of data set [2]: rat, in vivo.
Method: as §1, §2, §3, §4, §5, §6, §7

In data set [1], `C[C@H](N)C(=O)N[C@@H](CCC(N)=O)C(=O)O` [ALA-GLN] (H-Ala-Gln-OH) showed a clearance of 7.32 L/h/kg.

In data set [1], `C[C@H](NC(=O)[C@@H](N)Cc1ccc(O)cc1)C(=O)O` [TYR-ALA] yielded a clearance of 11.2 L/h/kg. For the same compound, the “mean Vβ of the dipeptide” value in data set [2] was 0.06 to 0.07 L/kg.

The compound `NC(=O)CC[C@H](N)C(=O)NCC(=O)O` [GLN-GLY] (H-Gln-Gly-OH) gave a clearance in data set [1] of 9.06 L/h/kg.

For `NCC(=O)N[C@@H](CCC(N)=O)C(=O)O` [GLY-GLN] (H-Gly-Gln-OH), the clearance in data set [1] came to 2.58 L/h/kg. Moreover, the “mean Vβ of the dipeptide” value in data set [2] lay in the range of 0.06 to 0.07 L/kg.

As to `NCC(=O)N[C@@H](Cc1ccc(O)cc1)C(=O)O` [GLY-TYR] (H-Gly-Tyr-OH), the clearance in data set [1] worked out at 6.06 L/h/kg. In data set [2], the “mean Vβ of the dipeptide” value was in the range of 0.06 to 0.07 L/kg.

For `C[C@H](N)C(=O)N[C@@H](Cc1ccc(O)cc1)C(=O)O` [ALA-TYR] (H-Ala-Tyr-OH), in data set [1], the clearance is 9.3 L/h/kg.

`C[C@H](NC(=O)[C@@H](N)CCC(N)=O)C(=O)O` [GLN-ALA] (H-Gln-Ala-OH): in data set [2], the “mean Vβ of the dipeptide” value was in the range of 0.06 to 0.07 L/kg; the “mean clearance of glutamine, times greater than glutamine from GlnGly or AlaGln” value stood at 4 times; the “mean t½ of glutamine, times shorter than glutamine from GlnGly or AlaGln” value worked out at 3 times. Moreover, the “CLEARANCE OF: Dipeptide” value in data set [2] (iv) turned out to be 16.7 L/h/kg.

Broadly, the clearance is the rate of elimination divided by the concentration. High values mean a high capacity for elimination, low ones a low capacity for elimination.

These data come from patent EP0646375A1, “Method of regulating blood amino acid levels” (CLINTEC NUTRITION COMPANY, priority 1993, dated 1995).
